Reference: patent publication US6451972B1, “Peptido-mimetic compounds containing RGD sequence useful as integrin inhibitors” (Sigma-Tau Industrie Farmaceutiche Riunite S.p.A., priority 1998, dated 2002)

Columns and labels:
[1] = system: HMEC cells adhesion to Vitronectin; experiment: Adhesion assay on vitronectin, HMEC cells; assay type: cell-based
Protocol: (§1) Ninety-six-well plates (Falcon) were coated with either fibronectin or vitronectin (both at […] in phosphate buffered saline) overnight at 4° C. Cells were detached using EDTA (1 mM)/trypsine (0.25%) and resuspended in own medium described above. Approximately 40,000 cells/[…] were applied for each well and allowed to adhere for 60 min at 37° C. in presence of different amounts of RGD peptides. For all experiments the non-adherent cells were removed with PBS and the remaining cells were fixed with 4% paraformaldehyde for 10 min.
(§2) Cells were stained with 1% toluidine blue for 10 min and rinsed with water.
(§3) Stained cells were solubilized with 1% SDS and quantified on a microtiter plate reader at 600 nm.
Experiments described were performed in quadruplicate and repeated a minimum of three times.
To asses the ability of ST1646 peptide to compete with vitronectin in adhesion assay also on other cells type, we performed this experiment using microvascular endothelial cells (HMEC), human prostate carcinoma cells (PC3) and murine lung carcinoma cells (M109). Table 6 (a, b and c) show a good activity of the ST1646 peptide in inhibiting adhesion of all cells type. […]
(§4) The percentages of adhesion inhibition refer to 1.5 μM concentration of each peptide and were calculated by the following formula (control-sample/control×100) where control was RGD untreated sample.

[2] = system: murine lung carcinoma cells (M109) adhesion to Vitronectin; experiment: Adhesion assay on vitronectin, M109 cells; assay type: cell-based
Protocol: Murine lung carcinoma cells (M109) were purchased from American Type Collection Culture (ATCC) and maintained in RPMI supplemented with 10% foetal calf serum, 10 mM L-glutamine and 100 units/ ml gentamicin.
as §1, §2, §3
(§5) Experiments described were performed in quadruplicate and repeated a minimum of three times. […]
as §4
The t-test has been calculated using the Mann Witney non parametric test, by the instat program. […]

[3] = system: M109 lung carcinoma; experiment: Antitumor and antimetastatic activity on M109 lung carcinoma-bearing Balb/c mice; assay type: in vivo; conditions: 200 μg/mouse (10 mg/kg) i.p. qdx9; lung metastases at day 16; untreated group 34
Protocol: Balb/c mice were injected i.m. with M109 lung carcinoma cells (3×10^5 cells/mouse) into the hind leg muscle.
Tumors were excised at day 10th after tumor implant. Mice were sacrificed at day 16th from tumor implant and lungs were removed. The number of lung metastases has been evaluated on tumor-excised mice (3 mice/group) using a dissecting microscope.
TVI % (tumor volume inhibition)=100−[(mean tumor weight of treated group/mean tumor weight of control group)×100]. Calculated on day 16th after tumor implant (just before mice sacrifice) on nonoperated mice.

[4] = system: bovine microvascular endothelial cells (BMEC) adhesion to Fibronectin; experiment: Adhesion inhibition of BMEC to fibronectin; assay type: cell-based
Protocol: (§6) Bovine microvascular endothelial cells (BMEC) were maintained in DMEM supplemented with 20% foetal calf serum, 50 units/ml heparin, 50 μg/ml bovine brain extract, 100 units/ml gentamycin.
(§7) BMEC were cultured on 1% gelatine-coated culture flasks and employed in experiments between passage 6-12.
as §1, §2, §3, §5
(§8) The percentages of adhesion inhibition refer to 100 μM concentration of each peptide of and it's calculated by the following formula (control-sample/control×100) where control was RGD untreated sample. […] The t-test has been calculated, using the Mann Witney non parametric test, by the instat program. […]

[5] = system: human prostate carcinoma cells (PC3) adhesion to Vitronectin; experiment: Adhesion assay on vitronectin, PC3 cells; assay type: cell-based
Protocol: Human prostate carcinoma cells (PC3) were purchased from American Type Collection Culture (ATCC) and maintained in RPMI supplemented with 10% foetal calf serum, 10 mM L-glutamine, 1% sodium piruvate and 100 units/ml gentamicin.
as §1, §2, §3, §5, §4

[6] = system: bovine microvascular endothelial cells (BMEC) adhesion to Vitronectin; experiment: Adhesion inhibition of BMEC to vitronectin; assay type: cell-based
Protocol: as §6, §7, §1, §2, §3, §5
as §8, with “µM” for “μM”

SMILES: CC(C)[C@@H]1NC(=O)[C@@H](Cc2ccccc2)NC(=O)[C@H](CC(=O)O)NC(=O)CNC(=O)[C@H](CCCNC(=N)N)NC1=O [KESSLER, cyclo (Arg-Gly-Asp-D-Phe-Val)]
- % Inhibition ([1]; 1.5 μM peptide): 39%
- IC50 ([1]; average of 3 experiments): 4.23 ± 0.31 µM
- % Inhibition ([2]; 1.5 μM peptide): 70%
- IC50 ([2]; average of 3 experiments): 0.46 ± 0.5 µM
- Mean no. of metastases [3]: 23
- % Inhibition ([4]; BMEC on fibronectin, 100 μM concentration of each peptide, mean of 4 samples): 30%
- IC50 ([4]; BMEC, fibronectin-coated plates, 100 to 0.6 μM tested, ± SD): > 100 µM
- % Inhibition ([5]; 1.5 μM peptide): 69%
- IC50 ([5]; average of 3 experiments): 2.5 ± 0.2 µM
- % Inhibition ([6]; BMEC on vitronectin, 100 µM concentration of each peptide, mean of 4 samples): 96%
- IC50 ([6]; BMEC, vitronectin-coated plates, 100 to 0.6 μM tested, ± SD): 7.8 ± 1.2 µM
